In patent publication US20100267561A1, “HERBICIDAL PYRIDAZINONE DERIVATIVES” (priority 2007, published 2010):

Key:
Experiment in all cases: Test B pre-/postemergence plant response
Assay type in all cases: in vivo
[1] = system: Italian ryegrass (Lolium multiflorum)
Outline: (§1)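 Preemergence and postemergence (plants 2-18 cm, 1- to 4-leaf stage) applications used test chemicals in a non-phytotoxic solvent with surfactant. Plants were held in a greenhouse 13 to 15 days, then rated visually against controls on a 0-100 scale (0 no effect, 100 complete control).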

[2] = system: blackgrass (Alopecurus myosuroides)
Outline: as §1

[3] = system: catchweed bedstraw (Galium aparine); conditions: Preemergence
Outline: as §1

[4] = system: downy bromegrass (Bromus tectorum); conditions: for Bromegrass, Downy plant response rating: 8 g ai/ha
Outline: as §1

[5] = system: eastern black (E.B.) nightshade (Solanum ptycanthum); conditions: Preemergence
Outline: as §1

[6] = system: giant foxtail (Setaria faberii)
Outline: as §1

[7] = system: green foxtail (Setaria viridis)
Outline: as §1

[8] = system: johnsongrass (Sorghum halepense)
Outline: as §1

[9] = system: morningglory (Ipomoea coccinea)
Outline: as §1

[10] = system: pigweed (Amaranthus retroflexus)
Outline: as §1

[11] = system: velvetleaf (Abutilon theophrasti)
Outline: as §1

wild oat (Avena fatua) = system: wild oat (Avena fatua)
Outline: as §1

[12] = system: woolly cupgrass (Eriochloa villosa)
Outline: as §1

[13] = system: yellow nutsedge (Cyperus esculentus)
Outline: as §1

[14] = 8 g ai/ha, postemergence, 0-100 scale
[15] = Postemergence, 16 g ai/ha, scale 0 to 100
[16] = Postemergence, 31 g ai/ha, scale 0 to 100
[17] = Postemergence, 62 g ai/ha, scale 0 to 100, 0 no effect, 100 complete control
[18] = Preemergence, 31 g ai/ha, scale 0 to 100 (0 no effect, 100 complete control)
[19] = Preemergence, 62 g ai/ha, scale 0 to 100
[20] = Preemergence, 8 g ai/ha, scale 0 to 100
[21] = Preemergence, 16 g ai/ha, scale 0 to 100
[22] = Preemergence, 16 g ai/ha, scale 0 to 100 (0 no effect, 100 complete control)
[23] = Preemergence, 31 g ai/ha, 0 to 100 scale, 0 no effect, 100 complete control
[24] = Postemergence, 31 g ai/ha, scale 0 to 100, 0 no effect, 100 complete control
[25] = Postemergence, 62 g ai/ha, scale 0 to 100
[26] = Postemergence, 125 g ai/ha, scale 0 to 100
[27] = Postemergence, 250 g ai/ha, scale 0 to 100
[28] = Preemergence, 125 g ai/ha, scale 0 to 100
[29] = Preemergence, 250 g ai/ha, scale 0 to 100
[30] = 31 g ai/ha, 0 to 100 scale, 0 no effect, 100 complete control

Cc1cc(-c2ccc(Cl)cc2)nn1-c1c(OC(=O)Oc2ccccc2)cnn(C)c1=O [Compound 54]
Ryegrass, Italian plant response rating [1, 14]: 75
Plant response rating, Ryegrass, Italian [1, 15]: 95
Plant response rating, Ryegrass, Italian [1, 16]: 95
Plant response rating, Ryegrass, Italian [1, 17]: 100
Plant response rating, Ryegrass, Italian [1, 18]: 90
Plant response rating, Ryegrass, Italian [1, 19]: 100
Ryegrass, Italian plant response rating [1, 20]: 20
Ryegrass, Italian plant response rating [1, 21]: 90
Blackgrass plant response rating [2, 14]: 45
Plant response rating, Blackgrass [2, 15]: 45
Plant response rating, Blackgrass [2, 16]: 70
Plant response rating, Blackgrass [2, 17]: 70
Plant response rating, Blackgrass [2, 22]: 90
Plant response rating, Blackgrass [2, 23]: 90
Plant response rating, Blackgrass [2, 19]: 90
Blackgrass plant response rating [2, 20]: 60
Plant response rating, Galium ([3]; 62 g ai/ha, scale 0 to 100): 0
Galium plant response rating ([3]; 8 g ai/ha, scale 0 to 100): 0
Galium plant response rating ([3]; 16 g ai/ha, scale 0 to 100): 0
Bromegrass, Downy plant response rating ([4]; postemergence, 0-100 scale): 5
Plant response rating, Bromegrass, Downy [4, 15]: 50
Plant response rating, Bromegrass, Downy [4, 16]: 50
Plant response rating, Bromegrass, Downy [4, 17]: 70
Plant response rating, Bromegrass, Downy [4, 22]: 0
Plant response rating, Bromegrass, Downy [4, 23]: 70
Plant response rating, Bromegrass, Downy [4, 19]: 85
Bromegrass, Downy plant response rating ([4]; Preemergence, scale 0 to 100): 0
Plant response rating, Nightshade, E. B. ([5]; 31 g ai/ha, scale 0 to 100 (0 no effect, 100 complete control)): 0
Plant response rating, Nightshade, E. B. ([5]; 62 g ai/ha, scale 0 to 100): 0
Nightshade, E. B. plant response rating ([5]; 8 g ai/ha, scale 0 to 100): 0
Nightshade, E. B. plant response rating ([5]; 16 g ai/ha, scale 0 to 100): 0
Foxtail, Giant plant response rating [6, 14]: 85
Plant response rating, Foxtail, Giant [6, 15]: 98
Plant response rating, Foxtail, Giant [6, 16]: 100
Plant response rating, Foxtail, Giant [6, 17]: 100
Plant response rating, Foxtail, Giant [6, 23]: 20
Plant response rating, Foxtail, Giant [6, 19]: 55
Foxtail, Giant plant response rating [6, 20]: 0
Foxtail, Giant plant response rating [6, 21]: 0
Foxtail, Green plant response rating [7, 14]: 70
Plant response rating, Foxtail, Green [7, 15]: 95
Plant response rating, Foxtail, Green [7, 16]: 95
Plant response rating, Foxtail, Green [7, 17]: 100
Plant response rating, Foxtail, Green [7, 23]: 100
Plant response rating, Foxtail, Green [7, 19]: 100
Foxtail, Green plant response rating [7, 20]: 55
Foxtail, Green plant response rating [7, 21]: 95
Johnsongrass plant response rating [8, 14]: 0
Plant response rating, Johnsongrass [8, 15]: 25
Plant response rating, Johnsongrass [8, 16]: 80
Plant response rating, Johnsongrass [8, 17]: 100
Plant response rating, Johnsongrass [8, 23]: 75
Plant response rating, Johnsongrass [8, 19]: 90
Johnsongrass plant response rating [8, 20]: 0
Johnsongrass plant response rating [8, 21]: 40
Morningglory plant response rating [9, 14]: 0
Plant response rating, Morningglory [9, 15]: 0
Plant response rating, Morningglory [9, 16]: 0
Plant response rating, Morningglory [9, 17]: 0
Plant response rating, Morningglory [9, 18]: 0
Plant response rating, Morningglory [9, 19]: 0
Morningglory plant response rating [9, 20]: 0
Morningglory plant response rating [9, 21]: 0
Pigweed plant response rating [10, 14]: 0
Plant response rating, Pigweed [10, 15]: 0
Plant response rating, Pigweed [10, 16]: 0
Plant response rating, Pigweed [10, 17]: 0
Plant response rating, Pigweed [10, 18]: 0
Plant response rating, Pigweed [10, 19]: 0
Pigweed plant response rating [10, 20]: 0
Pigweed plant response rating [10, 21]: 0
Velvetleaf plant response rating [11, 14]: 0
Plant response rating, Velvetleaf [11, 15]: 0
Plant response rating, Velvetleaf [11, 16]: 0
Plant response rating, Velvetleaf [11, 17]: 0
Plant response rating, Velvetleaf [11, 18]: 0
Plant response rating, Velvetleaf ([11]; Preemergence, 62 g ai/ha, 0 to 100 scale, 0 no effect, 100 complete control): 0
Velvetleaf plant response rating [11, 20]: 0
Velvetleaf plant response rating [11, 21]: 0
Oat, Wild plant response rating (wild oat (Avena fatua); [14]): 85
Plant response rating, Oat, Wild (wild oat (Avena fatua); [15]): 90
Plant response rating, Oat, Wild (wild oat (Avena fatua); [16]): 98
Plant response rating, Oat, Wild (wild oat (Avena fatua); [17]): 98
Plant response rating, Oat, Wild (wild oat (Avena fatua); [18]): 75
Plant response rating, Oat, Wild (wild oat (Avena fatua); [19]): 95
Oat, Wild plant response rating (wild oat (Avena fatua); [20]): 40
Oat, Wild plant response rating (wild oat (Avena fatua); [21]): 70
Cupgrass, Woolly plant response rating [12, 14]: 80
Plant response rating, Cupgrass, Woolly [12, 15]: 90
Plant response rating, Cupgrass, Woolly [12, 16]: 98
Plant response rating, Cupgrass, Woolly [12, 17]: 100
Plant response rating, Cupgrass, Woolly [12, 23]: 0
Plant response rating, Cupgrass, Woolly [12, 19]: 0
Cupgrass, Woolly plant response rating [12, 20]: 0
Cupgrass, Woolly plant response rating [12, 21]: 0
Nutsedge, Yellow plant response rating [13, 14]: 0
Plant response rating, Nutsedge, Yellow [13, 15]: 0
Plant response rating, Nutsedge, Yellow [13, 16]: 0
Plant response rating, Nutsedge, Yellow [13, 17]: 0
Plant response rating, Nutsedge, Yellow [13, 18]: 0
Plant response rating, Nutsedge, Yellow [13, 19]: 0
Nutsedge, Yellow plant response rating [13, 20]: 0
Nutsedge, Yellow plant response rating [13, 21]: 0

Cc1nn(C)c(=O)c(-n2nc(-c3ccc(Cl)cc3)cc2C)c1O [Compound 15]
Plant response rating, Ryegrass, Italian [1, 24]: 98
Plant response rating, Ryegrass, Italian [1, 25]: 100
Plant response rating, Ryegrass, Italian [1, 26]: 100
Plant response rating, Ryegrass, Italian [1, 27]: 100
Plant response rating, Ryegrass, Italian [1, 23]: 70
Plant response rating, Ryegrass, Italian [1, 19]: 100
Plant response rating, Ryegrass, Italian [1, 28]: 100
Plant response rating, Ryegrass, Italian [1, 29]: 100
Blackgrass plant response rating ([2]; 250 g ai/ha, preemergence, 0-100 scale): 100
Plant response rating, Blackgrass [2, 24]: 90
Plant response rating, Blackgrass [2, 25]: 95
Plant response rating, Blackgrass [2, 26]: 95
Plant response rating, Blackgrass [2, 27]: 98
Plant response rating, Blackgrass [2, 23]: 100
Plant response rating, Blackgrass [2, 19]: 100
Plant response rating, Blackgrass [2, 28]: 100
Plant response rating, Galium [3, 30]: 0
Plant response rating, Galium ([3]; 62 g ai/ha, scale 0 to 100): 0
Plant response rating, Galium ([3]; 125 g ai/ha, scale 0 to 100): 10
Plant response rating, Galium ([3]; 250 g ai/ha, scale 0 to 100): 100
Plant response rating, Bromegrass, Downy [4, 24]: 10
Plant response rating, Bromegrass, Downy [4, 25]: 15
Plant response rating, Bromegrass, Downy [4, 26]: 45
Plant response rating, Bromegrass, Downy [4, 27]: 60
Plant response rating, Bromegrass, Downy [4, 23]: 50
Plant response rating, Bromegrass, Downy [4, 19]: 55
Plant response rating, Bromegrass, Downy [4, 28]: 90
Plant response rating, Bromegrass, Downy ([4]; Preemergence, 250 g ai/ha, scale 0 to 100 (0 no effect, 100 complete control)): 98
Plant response rating, Nightshade, E. B. [5, 30]: 0
Plant response rating, Nightshade, E. B. ([5]; 62 g ai/ha, scale 0 to 100): 0
Plant response rating, Nightshade, E. B. ([5]; 125 g ai/ha, scale 0 to 100): 0
Plant response rating, Nightshade, E. B. ([5]; 250 g ai/ha, scale 0 to 100): 0
Plant response rating, Foxtail, Giant [6, 24]: 95
Plant response rating, Foxtail, Giant [6, 25]: 100
Plant response rating, Foxtail, Giant [6, 26]: 100
Plant response rating, Foxtail, Giant [6, 27]: 100
Plant response rating, Foxtail, Giant [6, 23]: 90
Plant response rating, Foxtail, Giant [6, 19]: 100
Plant response rating, Foxtail, Giant [6, 28]: 100
Plant response rating, Foxtail, Giant [6, 29]: 100
Plant response rating, Foxtail, Green [7, 24]: 95
Plant response rating, Foxtail, Green [7, 25]: 95
Plant response rating, Foxtail, Green [7, 26]: 100
Plant response rating, Foxtail, Green [7, 27]: 100
Plant response rating, Foxtail, Green [7, 23]: 100
Plant response rating, Foxtail, Green [7, 19]: 100
Plant response rating, Foxtail, Green [7, 28]: 100
Plant response rating, Foxtail, Green [7, 29]: 100
Plant response rating, Johnsongrass [8, 24]: 70
Plant response rating, Johnsongrass [8, 25]: 80
Plant response rating, Johnsongrass [8, 26]: 100
Plant response rating, Johnsongrass [8, 27]: 100
Plant response rating, Johnsongrass [8, 23]: 70
Plant response rating, Johnsongrass [8, 19]: 95
Plant response rating, Johnsongrass [8, 28]: 98
Plant response rating, Johnsongrass [8, 29]: 100
Plant response rating, Morningglory [9, 24]: 0
Plant response rating, Morningglory [9, 25]: 0
Plant response rating, Morningglory [9, 26]: 0
Plant response rating, Morningglory [9, 27]: 0
Plant response rating, Morningglory [9, 23]: 0
Plant response rating, Morningglory [9, 28]: 0
Plant response rating, Pigweed [10, 24]: 0
Plant response rating, Pigweed [10, 25]: 0
Plant response rating, Pigweed [10, 26]: 0
Plant response rating, Pigweed [10, 27]: 0
Plant response rating, Pigweed [10, 23]: 0
Plant response rating, Pigweed [10, 19]: 0
Plant response rating, Pigweed [10, 28]: 0
Plant response rating, Pigweed [10, 29]: 0
Plant response rating, Velvetleaf [11, 24]: 0
Plant response rating, Velvetleaf [11, 25]: 0
Plant response rating, Velvetleaf [11, 26]: 0
Plant response rating, Velvetleaf [11, 27]: 0
Plant response rating, Velvetleaf [11, 23]: 0
Plant response rating, Velvetleaf [11, 19]: 0
Plant response rating, Velvetleaf [11, 29]: 0
Plant response rating, Oat, Wild (wild oat (Avena fatua); [24]): 95
Plant response rating, Oat, Wild (wild oat (Avena fatua); [25]): 98
Plant response rating, Oat, Wild (wild oat (Avena fatua); [26]): 98
Plant response rating, Oat, Wild (wild oat (Avena fatua); [27]): 100
Plant response rating, Oat, Wild (wild oat (Avena fatua); [23]): 10
Plant response rating, Oat, Wild (wild oat (Avena fatua); [19]): 70
Plant response rating, Oat, Wild (wild oat (Avena fatua); [28]): 80
Plant response rating, Oat, Wild (wild oat (Avena fatua); [29]): 85
Plant response rating, Cupgrass, Woolly [12, 25]: 100
Plant response rating, Cupgrass, Woolly [12, 26]: 100
Plant response rating, Cupgrass, Woolly [12, 27]: 100
Plant response rating, Cupgrass, Woolly [12, 23]: 60
Plant response rating, Cupgrass, Woolly [12, 19]: 85
Plant response rating, Cupgrass, Woolly [12, 28]: 90
Plant response rating, Cupgrass, Woolly [12, 29]: 98
Plant response rating, Nutsedge, Yellow [13, 25]: 0
Plant response rating, Nutsedge, Yellow [13, 26]: 0
Plant response rating, Nutsedge, Yellow [13, 27]: 0
Plant response rating, Nutsedge, Yellow [13, 23]: 0
Plant response rating, Nutsedge, Yellow [13, 19]: 0
Plant response rating, Nutsedge, Yellow [13, 29]: 0
